Source: patent US20180049433A1, “SEMIOCHEMICAL COMPOSITIONS FOR THE PREVENTION OF HEMATOPHAGOUS DIPTERA INSECTS FROM LANDING AND BITING ANIMALS” (INSTITUTE DE RECHERCHE EN SEMIOCHIMIE ET ETHOLOGIE APPLIQUEE, priority 2015, published 2018)
“And” between values parts separate entries of the source, which are not always exact repeats. Equal values may be shown once. Read-outs that look alike come from different tables or passages of the source.

Legend:
[1] = test system: Culex pipiens quinquefasciatus; assay: Mosquito engorgement test on treated shaved guinea pigs, Culex pipiens quinquefasciatus; assay type: in vivo
From the text: The tests were undertaken using experimental cages, which were composed of a plastic frame having the dimensions 29×29×29 cm. A sleeve of mosquito netting was placed over the cage. The sleeves of the netting were closed with rubber bands thus preventing light from entering the cages.
In each cage the mosquitoes had at their disposition a little water placed in a jar.
The mosquitoes that were used in this experiment were Culex pipiens quinquefasciatus. In each cage 50 female mosquitoes were introduced.
The day before the test 50 […] female mosquitoes were introduced into their experimental cage. The mosquitoes were deprived of a source of sugar at least twelve hours before the test.
The mosquitoes were collected by suction on the walls of the experimental cage with a mouth vacuum that was connected to a suction pump. To avoid errors, the mosquitoes were removed and introduced in lots of five. The sex was determined by observation of their antennas, since the male's antennas are more feathery.
Once the mouth vacuum was empty in the experimental cage the health of the mosquitoes was verified. To be used in the experiment, the mosquitoes had to be able to fly. Before the test the dead mosquitoes or those mosquitoes that could not fly were replaced with healthy ones.
Prior to starting the experiment the mosquitoes were tested to determine if the mosquitoes were ready to bite. This was verified by introducing a hand washed with soap and without any smell in the experimental cage. If more than three mosquitoes posed on the hand voluntarily within a delay of 30 seconds, then it was deemed that the mosquitoes were ready to bite. The hand was withdrawn when the three mosquitoes posed on it or when the 30 second time period was up. This test was repeated every minute for a maximum of 5 minutes, until a positive result was obtained. If no positive result was obtained the experiment was postponed.
A herd of guinea pigs males and females aging from 4 months to 3 years were used in the experiments. The guinea pig was anesthetized by injecting 1 mg/kg (live weight) of Zoletil® 20 in the thigh. A thin layer of Ocryl® gel was placed on the eyes of the guinea pigs.
The abdominal zone of the guinea pigs were carefully shaved from the teats to the base of the thorax. The area that was shaved was 8 cm from the base of the thorax to the teats by 6 cm from left to right of the guinea pig. This was done using a transparent template.
After shaking the sprayer containing the insect bite inhibiting semiochemical, each guinea pig was sprayed 3 times (0.5 ml total) in the center of the shaved region. After the first administration, the product was spread with the little finger, in which the hand is covered by a vinyl glove, towards the teats. After the second administration by spraying the product was spread with the gloved little finger towards the thorax. After the third administration by spraying the product was spread over the entire shaved surface. The product was permitted to dry for a period of five minutes.
At the bottom of the experimental cage a transparent sheet was placed in which a rectangle of 7 cm by 5 cm was cut in the center. Another cover sheet cut with the same dimensions as the transparent sheet was made and the two rectangles were superimposed on one another and stapled together with 8 staples.
The shaved zone of the guinea pig was centered over the rectangular transparent sheet and the guinea pigs were exposed to the mosquitoes for 30 minutes. See, FIGS. 2 and 3.
At the end of 30 minutes, the mosquitoes were recovered by mouth vacuum. They were then enclosed in a plastic bag that contained a paper soaked with ethyl acetate. After 3 minutes the mosquitoes were aligned on a strip of scotch tape that was labeled with the number of the experiment, the date, the name of the guinea pig in the experiment and the treatment that was applied.
Each treatment was tested with a control.

[2] = test system: Culex pipiens quinquefasciatus; assay: Mosquito engorgement test on treated cats, Culex pipiens quinquefasciatus; assay type: in vivo; conditions: cat
Procedure: Other tests were performed on guinea pigs and cats using combinations of D, which is 3-cyclopentyl propanoic acid, F, which is 3-cyclohexyl propanoic acid, X, which is 3-cyclohexyl 2-methyl propanoic acid and W, which is 3-cyclopentyl 2-methyl propanoic acid.
The same experiment was conducted in the same manner as in Example 4 using guinea pigs, chickens and cats. The mosquitoes used in this experiment were Culex sp, Aedes sp and Anopheles.
The procedure that was followed was that in Example 4, except that cats (Felis domesticus) were tested instead of guinea pigs. The mosquitoes that were used in this experiement were Culex pipiens quinquefasciatus and Aedes aegypti.

insects = conditions: cited from earlier work
[3] = guinea pig, solution 0.3%, dose 31 μg/cm^2, 30 min exposure
[4] = guinea pig, solution 3.0%, dose 31 μg/cm^2, 30 min exposure
[5] = guinea pig, solution 0.1%, dose not given, 30 min exposure
[6] = guinea pig, dose 31 μg/cm^2 (Table 7)
[7] = guinea pig, solution 0.3%, dose 33 μg/cm^2, 30 min exposure
[8] = solution 3.0%, dose 324 μg/cm^2, 30 min exposure

Compound: CC(C)=CCC/C(C)=C/CO [geraniol, reference compound]
- % bites tested [1, 3]: 25%
- % efficacy [1, 3]: 58%
- % bites tested [1, 4]: 0%
- % efficacy [1, 4]: 100%

Compound: O=C(O)CC1CCCCC1 [CHA, cyclohexyl acetic acid]
- % bites tested [1, 3]: 8%
- % efficacy [1, 3]: 86%

Compound: Cc1ncc(CO)c(CO)c1O [Vit. B6, reference compound]
- % bites tested [1, 5]: 87%
- % efficacy [1, 5]: −19%

Compound: CC(CC1CCCCC1)C(=O)O (stereo not shown) [methylated 3-CHP, 3-cyclohexyl 2-methyl propanoic acid]
- % efficacy [1, 6]: 67%

Compound: O=C(O)CCC1CCCC1 [3-CPP, 3-cyclopentyl propionic acid]
- % efficacy ([2]; 3.0%, dose 314 μg/cm^2): 100%
- Number of bites of the solution used ([2]; 3.0%, dose 314 μg/cm^2): 0%
- % efficacy ([2]; dose 32 μg/cm^2): 94% and 100%
- % efficacy ([2]; dose 324 μg/cm^2): 100%
- % bites tested [1, 3]: 4% and 5% and 1% and 11%
- % efficacy [1, 3]: 94% and 85% and 91% and 82%
- % bites tested [1, 7]: 0%
- % efficacy [1, 7]: 100%
- % bites tested [1, 8]: 0%
- % efficacy [1, 8]: 100%

Compound: methylated cyclohexyl acetic acid [methylated CHA]
- % efficacy [1, 6]: 77%

Compound: pinene [reference compound]
- % bites tested [1, 3]: 23%
- % efficacy [1, 3]: 30%

Compound: C=C(C)[C@H]1CC=C(C)CC1 [limonene, reference compound]
- % bites tested [1, 3]: 58%
- % efficacy [1, 3]: −19%

Compound: CC1=CC[C@@H](C(C)(C)O)CC1 [alpha terpineol, reference compound]
- % bites tested [1, 3]: 32%
- % efficacy [1, 3]: 48%

Compound: Cc1ncc(C[n+]2csc(CCO)c2C)c(N)n1 [Vit. B1, reference compound]
- % bites tested [1, 5]: 93%
- % efficacy [1, 5]: 2%

Compound: CC12CCC(CC1)C(C)(C)O2 [eucalyptol, reference compound]
- % bites tested [1, 3]: 43%
- % efficacy [1, 3]: −14%

Compound: CC(CC1CCCC1)C(=O)O (stereo not shown) [methylated 3-CPP, 3-cyclopentyl 2-methyl propanoic acid]
- % efficacy [1, 6]: 89%

Compound: CCN(CC)C(=O)c1cccc(C)c1 [DEET, N,N-diethyl-meta-toluamide]
- protection time (insects; encapsulated DEET): up to 10 hours
- protection time (insects; product containing 4.75% of DEET): one and a half
- protection time (insects; product containing 23.8% of DEET): five
